Results as given in US20170232083A1, “METHODS OF DIAGNOSIS AND TREATMENT OF CELIAC DISEASE IN CHILDREN” (priority 2014, published 2017).

Test system: PBMC (polyclonal gluten-specific T cells) of paediatric and adult CD patients
Assay: IFN-γ ELISpot of PBMC after 3 day oral wheat challenge (SFU, % of maximal peptide response, dominance scores, EC50; Examples 5-6)
Type: cell-based, human
Conditions: for Cross-reactive T cell response: following wheat challenge; for IFN-γ ELISpot response: after oral wheat challenge
[1] = subject I (3-5yrs/6-10yrs part)
[2] = subject J (3-5yrs/6-10yrs part)
[3] = subject K (3-5yrs/6-10yrs part)
[4] = subject V (3-5yrs/6-10yrs part)
[5] = subject W (3-5yrs/6-10yrs part)
[6] = subject Y (3-5yrs/6-10yrs part)
[7] = subject five (3-5yrs/6-10yrs part)
[8] = subject seven (3-5yrs/6-10yrs part)
[9] = subject six (3-5yrs/6-10yrs part)
[10] = subject ten (3-5yrs/6-10yrs part)
[11] = subject two (3-5yrs/6-10yrs part)

LPFPQPEQPFVVV
Cross-reactive T cell response (subject A, 11-17yrs): 1 SFU | Significant response as a percentage of maximal peptide SFU (subject D, 11-17yrs): ′′′ (41-70% = ′′′) | Cross-reactive T cell response (subject D, 11-17yrs): 20 SFU | Significant response as a percentage of maximal peptide SFU (subject E, 11-17yrs): (6-10% - ^) | Cross-reactive T cell response (subject E, 11-17yrs): 16 SFU | Significant response as a percentage of maximal peptide SFU (subject F, 11-17yrs): (6-10% - ^) | Cross-reactive T cell response (subject F, 11-17yrs): 15 SFU | Cross-reactive T cell response (subject G, 11-17yrs): 3 SFU | Cross-reactive T cell response (subject H): 3 SFU | Cross-reactive T cell response [1]: 7 SFU | Significant response as a percentage of maximal peptide SFU (subject J): ′ (11-20% = ′) | Cross-reactive T cell response [2]: 29 SFU | Significant response as a percentage of maximal peptide SFU (subject K): ′′ (21-40% = ′′) | Cross-reactive T cell response [3]: 18 SFU | Cross-reactive T cell response (subject P, 11-17yrs): 20 SFU | Significant response as a percentage of maximal peptide SFU (subject Q, 11-17yrs): ′′ (21-40% = ′′) | Cross-reactive T cell response (subject Q, 11-17yrs): 31 SFU | Significant response as a percentage of maximal peptide SFU (subject T, 11-17yrs): ′′′ (41-70% = ′′′) | Cross-reactive T cell response (subject T, 11-17yrs): 42 SFU | Cross-reactive T cell response (subject U, 11-17yrs): 8 SFU | Significant response as a percentage of maximal peptide SFU (subject V): ′′ (21-40% = ′′) | Cross-reactive T cell response [4]: 13 SFU | Cross-reactive T cell response [5]: 9 SFU | Cross-reactive T cell response [6]: 7 SFU | Significant response as a percentage of maximal peptide SFU (subject five): + (>70% = +) | Cross-reactive T cell response [7]: 34 SFU | Cross-reactive T cell response (subject nine, 11-17yrs): 1 SFU | Cross-reactive T cell response [8]: 3 SFU | Cross-reactive T cell response [9]: 8 SFU | Cross-reactive T cell response [10]: 8 SFU | Significant response as a percentage of maximal peptide SFU (subject two): ′′ (21-40% = ′′) | Cross-reactive T cell response [11]: 18 SFU

QPFPQPEQPFPWQP
IFN-γ ELISpot response (patient A, 11-17 yrs, cut-off 10 SFU): 3.5 SFU | Significant response as percentage of maximal peptide SFU (patient D, max peptide 30.5 SFU): + (>70% = +) | IFN-γ ELISpot response (patient E, H, 11-17 yrs, cut-off 10 SFU): 44 SFU | Significant response as percentage of maximal peptide SFU (patient E, max peptide 224 SFU): ′ (11-20% = ′) | IFN-γ ELISpot response (patient F, 11-17 yrs, cut-off 10 SFU): 84.5 SFU | Significant response as percentage of maximal peptide SFU (patient F, max peptide 178 SFU): ′′′ (41-70% = ′′′) | IFN-γ ELISpot response (patient G, 11-17 yrs, cut-off 10 SFU): 8 SFU | IFN-γ ELISpot response (patient H (HLA-DQ2.5 homozygote), 3-5yrs, cut-off 10 SFU): 27.5 SFU | IFN-γ ELISpot response (patient H, 11-17 yrs, cut-off 10 SFU): 8.5 SFU | IFN-γ ELISpot response (patient ID not given, 11-17 yrs, cut-off 10 SFU): 67.5 SFU | Significant response as percentage of maximal peptide SFU (patient ID not given, max peptide 95 SFU): + (>70% = +) | Significant response as percentage of maximal peptide SFU (patient II, max peptide 15 SFU): + (>70% = +) | Significant response as percentage of maximal peptide SFU (patient J, max peptide 196 SFU): ′′′ (41-70% = ′′′) | Significant response as percentage of maximal peptide SFU (patient K, max peptide 53 SFU): ′′ (21-40% = ′′) | Significant response as percentage of maximal peptide SFU (patient M, max peptide 48 SFU): ′′′ (41-70% = ′′′) | IFN-γ ELISpot response (patient N, 3-5yrs, cut-off 10 SFU): 7 SFU | IFN-γ ELISpot response (patient P, 11-17 yrs, cut-off 21.6 SFU): 20 SFU | IFN-γ ELISpot response (patient Q, 11-17 yrs, cut-off 10 SFU): 63 SFU | IFN-γ ELISpot response (patient U, H, 11-17 yrs, cut-off 10 SFU): 17 SFU | Significant response as percentage of maximal peptide SFU (patient U, max peptide 81 SFU): ′′ (21-40% = ′′) | IFN-γ ELISpot response (patient V, 6-10 yrs, cut-off 10 SFU): 25 SFU | Significant response as percentage of maximal peptide SFU (patient V, max peptide 35 SFU): + (>70% = +) | IFN-γ ELISpot response (patient Y, 6-10 yrs, cut-off 10 SFU): 10 SFU | Significant response as percentage of maximal peptide SFU (patient Y, max peptide 16 SFU): ′′′ (41-70% = ′′′) | Significant response as percentage of maximal peptide SFU (patient Z, max peptide 13 SFU): + (>70% = +) | IFN-γ ELISpot response (patient eleven, 6-10 yrs, cut-off 10 SFU): 20.5 SFU | Significant response as percentage of maximal peptide SFU (patient eleven, max peptide 57 SFU): ′′ (21-40% = ′′) | Significant response as percentage of maximal peptide SFU (patient five, max peptide 48 SFU): + (>70% = +) | IFN-γ ELISpot response (patient four, 3-5yrs, cut-off 10 SFU): 28.5 SFU | Significant response as percentage of maximal peptide SFU (patient four, max peptide 44 SFU): ′′′ (41-70% = ′′′) | IFN-γ ELISpot response (patient seven, 6-10 yrs, cut-off 10.5 SFU): 11 SFU | Significant response as percentage of maximal peptide SFU (patient seven, max peptide 27 SFU): ′′′ (41-70% = ′′′) | IFN-γ ELISpot response (patient six, 3-5yrs, cut-off 10 SFU): 10 SFU | Significant response as percentage of maximal peptide SFU (patient six, max peptide 13 SFU): + (>70% = +) | IFN-γ ELISpot response (patient ten, 3-5yrs, cut-off 10 SFU): 14.5 SFU | Significant response as percentage of maximal peptide SFU (patient ten, max peptide 14.5 SFU): + (>70% = +) | IFN-γ ELISpot response (patient three, 6-10 yrs, cut-off 10.5 SFU): 95 SFU | IFN-γ ELISpot response (patient twelve, 11-17 yrs, cut-off 10 SFU): 30.5 SFU | IFN-γ ELISpot response (patient two, 3-5yrs, cut-off 10 SFU): 52.5 SFU | Significant response as percentage of maximal peptide SFU (patient two, max peptide 60 SFU): + (>70% = +) | Cross-reactive T cell response (subject A, 11-17yrs): 15 SFU | Significant response as a percentage of maximal peptide SFU (subject D, 11-17yrs): + (>70% = +) | Cross-reactive T cell response (subject D, 11-17yrs): 30.5 SFU | Significant response as a percentage of maximal peptide SFU (subject E, 11-17yrs): ′ (11-20% = ′) | Cross-reactive T cell response (subject E, 11-17yrs): 44 SFU | Significant response as a percentage of maximal peptide SFU (subject F, 11-17yrs): ′′′ (41-70% = ′′′) | Cross-reactive T cell response (subject F, 11-17yrs): 845 SFU | Cross-reactive T cell response (subject G, 11-17yrs): 8 SFU | Cross-reactive T cell response (subject H): 8.5 SFU | Cross-reactive T cell response [1]: 5.5 SFU | Cross-reactive T cell response [2]: 95- SFU | Significant response as a percentage of maximal peptide SFU (subject K): ′′ (21-40% = ′′) | Cross-reactive T cell response [3]: 18.5 SFU | Cross-reactive T cell response (subject P, 11-17yrs): 20 SFU | Significant response as a percentage of maximal peptide SFU (subject Q, 11-17yrs): ′′′ (41-70% = ′′′) | Cross-reactive T cell response (subject Q, 11-17yrs): 63 SFU | Cross-reactive T cell response (subject T, 11-17yrs): 67.5 SFU | Significant response as a percentage of maximal peptide SFU (subject U, 11-17yrs): ′′ (21-40% = ′′) | Cross-reactive T cell response (subject U, 11-17yrs): 17 SFU | Significant response as a percentage of maximal peptide SFU (subject V): + (>70% = +) | Cross-reactive T cell response [4]: 25 SFU | Cross-reactive T cell response [5]: 9 SFU | Cross-reactive T cell response [6]: 10- SFU | Significant response as a percentage of maximal peptide SFU (subject five): + (>70% = +) | Cross-reactive T cell response [7]: 40.5 SFU | Cross-reactive T cell response (subject nine, 11-17yrs): 15 SFU | Significant response as a percentage of maximal peptide SFU (subject seven): ′′ (21-40% = ′′) | Cross-reactive T cell response [8]: 11 SFU | Significant response as a percentage of maximal peptide SFU (subject six): + (>70% = +) | Cross-reactive T cell response [9]: 10 SFU | Significant response as a percentage of maximal peptide SFU (subject ten): + (>70% = +) | Cross-reactive T cell response [10]: 14.5 SFU | Significant response as a percentage of maximal peptide SFU (subject two): + (>70% = +) | Cross-reactive T cell response [11]: 52.5 SFU
